Drawing on the NIST ThermoML archive (doi:10.1021/je4001894), this text covers activity coefficient for 40 compounds.

The structures appear in SMILES notation. Numbers after ± are expanded uncertainties.

A short description of the series: activity coefficient (dimensionless); of the first substance listed, at infinite dilution; xn = mol fraction of the nth substance listed. The conditions noted are these: 101 kPa, Liquid, Chromatography, x1 = 0.

For `CCCCCCCCCCCC` [dodecane] + CCCC[N+]1(C)CCCC1.O=S(=O)([N-]S(=O)(=O)C(F)(F)F)C(F)(F)F, the activity coefficient was 105 ± 7.2 (323.15 K), 93.8 ± 6.4 (333.15 K) and 83 ± 5.7 (343.15 K).
With `CCO` [ethanol] + CCCC[N+]1(C)CCCC1.O=S(=O)([N-]S(=O)(=O)C(F)(F)F)C(F)(F)F, the activity coefficient (323.15 K) turned out to be 1.73 ± 0.12, the activity coefficient (333.15 K) was determined as 1.57 ± 0.1 and the activity coefficient (343.15 K) was 1.43 ± 0.09.
Regarding `CCO` [ethanol] + CCC[N+]1(C)CCCC1.O=S(=O)([N-]S(=O)(=O)C(F)(F)F)C(F)(F)F, the activity coefficient (323.15 K) was 1.75 ± 0.12, the activity coefficient (333.15 K) is 1.57 ± 0.1 and the activity coefficient (343.15 K) came to 1.49 ± 0.1.
As for `CCc1ccccc1` [ethylbenzene] + CCCC[N+]1(C)CCCC1.O=S(=O)([N-]S(=O)(=O)C(F)(F)F)C(F)(F)F, the activity coefficient by setting is: (323.15 K) 1.83 ± 0.12; (333.15 K) 1.85 ± 0.12; (343.15 K) 1.87 ± 0.13.
For `CCCCCCC` [heptane] + CCCC[N+]1(C)CCCC1.O=S(=O)([N-]S(=O)(=O)C(F)(F)F)C(F)(F)F the same measures were 19.7 ± 1.4, 18.4 ± 1.3 and 17.5 ± 1.2.
Take `CCCCCCC` [heptane] + CCC[N+]1(C)CCCC1.O=S(=O)([N-]S(=O)(=O)C(F)(F)F)C(F)(F)F: the activity coefficient (323.15 K) came to 24 ± 1.6, the activity coefficient (333.15 K) turned out to be 23.1 ± 1.6 and the activity coefficient (343.15 K) is 22.3 ± 1.5.
As to `C=CCCCC` [hex-1-ene] + CCCC[N+]1(C)CCCC1.O=S(=O)([N-]S(=O)(=O)C(F)(F)F)C(F)(F)F, the activity coefficient (323.15 K) came out at 7.51 ± 0.51, the activity coefficient (333.15 K) was found to be 7.21 ± 0.49 and the activity coefficient (343.15 K) is 7.12 ± 0.49.
Take `C=CCCCC` [hex-1-ene] + CCC[N+]1(C)CCCC1.O=S(=O)([N-]S(=O)(=O)C(F)(F)F)C(F)(F)F: the activity coefficient is 7.96 ± 0.54 (323.15 K), 7.75 ± 0.53 (333.15 K) and 7.65 ± 0.52 (343.15 K).
For `CCCCCC` [hexane] + CCCC[N+]1(C)CCCC1.O=S(=O)([N-]S(=O)(=O)C(F)(F)F)C(F)(F)F the same measures were 13.9 ± 0.95, 13.6 ± 0.93 and 12.6 ± 0.86.
For `CCCCCC` [hexane] + CCC[N+]1(C)CCCC1.O=S(=O)([N-]S(=O)(=O)C(F)(F)F)C(F)(F)F the same measures were 16.5 ± 1.1, 15 ± 1 and 14.1 ± 0.96.
With `CO` [methanol] + CCCC[N+]1(C)CCCC1.O=S(=O)([N-]S(=O)(=O)C(F)(F)F)C(F)(F)F, the activity coefficient by setting is: (323.15 K) 1.4 ± 0.09; (333.15 K) 1.28 ± 0.08; (343.15 K) 1.18 ± 0.08.
For `CO` [methanol] + CCC[N+]1(C)CCCC1.O=S(=O)([N-]S(=O)(=O)C(F)(F)F)C(F)(F)F the same measures were 1.38 ± 0.09, 1.28 ± 0.08 and 1.15 ± 0.07.
Turning to `CC1CCCCC1` [methylcyclohexane] + CCCC[N+]1(C)CCCC1.O=S(=O)([N-]S(=O)(=O)C(F)(F)F)C(F)(F)F, the activity coefficient runs as follows: (323.15 K) 11.5 ± 0.79; (333.15 K) 10.7 ± 0.73; (343.15 K) 10.1 ± 0.69.
As to `CC1CCCCC1` [methylcyclohexane] + CCC[N+]1(C)CCCC1.O=S(=O)([N-]S(=O)(=O)C(F)(F)F)C(F)(F)F, the activity coefficient by setting is: (323.15 K) 14.1 ± 0.96; (333.15 K) 12.8 ± 0.87; (343.15 K) 12.2 ± 0.83.
As to `CC1CCCC1` [methylcyclopentane] + CCCC[N+]1(C)CCCC1.O=S(=O)([N-]S(=O)(=O)C(F)(F)F)C(F)(F)F, the activity coefficient reads like this: (323.15 K) 8.68 ± 0.59; (333.15 K) 8.24 ± 0.56; (343.15 K) 7.85 ± 0.54.
In the same order, the values of `CC1CCCC1` [methylcyclopentane] + CCC[N+]1(C)CCCC1.O=S(=O)([N-]S(=O)(=O)C(F)(F)F)C(F)(F)F are 10.3 ± 0.7, 10.3 ± 0.7 and 9.16 ± 0.63.
Consider `C[N+](=O)[O-]` [nitromethane] + CCCC[N+]1(C)CCCC1.O=S(=O)([N-]S(=O)(=O)C(F)(F)F)C(F)(F)F, for which the activity coefficient by setting is: (323.15 K) 0.65 ± 0.04; (333.15 K) 0.58 ± 0.04; (343.15 K) 0.57 ± 0.04.
As to `CCCCCCCCC` [nonane] + CCCC[N+]1(C)CCCC1.O=S(=O)([N-]S(=O)(=O)C(F)(F)F)C(F)(F)F, the activity coefficient reads like this: (323.15 K) 42.7 ± 2.9; (333.15 K) 38.3 ± 2.6; (343.15 K) 34.7 ± 2.4.
For `CCCCCCCCC` [nonane] + CCC[N+]1(C)CCCC1.O=S(=O)([N-]S(=O)(=O)C(F)(F)F)C(F)(F)F the same measures were 55.5 ± 3.8, 48.7 ± 3.3 and 47.5 ± 3.2.
On to `CCCCCCCC` [octane] + CCCC[N+]1(C)CCCC1.O=S(=O)([N-]S(=O)(=O)C(F)(F)F)C(F)(F)F, for which the activity coefficient (323.15 K) was 28.2 ± 1.9, the activity coefficient (333.15 K) was found to be 25.3 ± 1.7 and the activity coefficient (343.15 K) turned out to be 23.5 ± 1.6.
Consider `CCCCCCCC` [octane] + CCC[N+]1(C)CCCC1.O=S(=O)([N-]S(=O)(=O)C(F)(F)F)C(F)(F)F, for which the activity coefficient turned out to be 35.8 ± 2.5 (323.15 K), 31.1 ± 2.1 (333.15 K) and 30.6 ± 2.1 (343.15 K).
For the compound `CCCC(C)=O` [pentan-2-one] + CCCC[N+]1(C)CCCC1.O=S(=O)([N-]S(=O)(=O)C(F)(F)F)C(F)(F)F, the activity coefficient was 0.8 ± 0.05 (323.15 K), 0.81 ± 0.05 (333.15 K) and 0.82 ± 0.05 (343.15 K).
For `CCCC(C)=O` [pentan-2-one] + CCC[N+]1(C)CCCC1.O=S(=O)([N-]S(=O)(=O)C(F)(F)F)C(F)(F)F the same measures were 0.88 ± 0.06, 0.88 ± 0.06 and 0.91 ± 0.06.
Take `CCC(=O)CC` [pentan-3-one] + CCCC[N+]1(C)CCCC1.O=S(=O)([N-]S(=O)(=O)C(F)(F)F)C(F)(F)F: the activity coefficient worked out at 0.73 ± 0.05 (323.15 K), 0.75 ± 0.05 (333.15 K) and 0.77 ± 0.05 (343.15 K).
For the compound `CCC(=O)CC` [pentan-3-one] + CCC[N+]1(C)CCCC1.O=S(=O)([N-]S(=O)(=O)C(F)(F)F)C(F)(F)F, the activity coefficient (323.15 K) stood at 0.84 ± 0.05, the activity coefficient (333.15 K) is 0.82 ± 0.05 and the activity coefficient (343.15 K) worked out at 0.86 ± 0.06.
As to `CCCO` [propan-1-ol] + CCCC[N+]1(C)CCCC1.O=S(=O)([N-]S(=O)(=O)C(F)(F)F)C(F)(F)F, the activity coefficient (323.15 K) amounted to 2.07 ± 0.14, the activity coefficient (333.15 K) is 1.87 ± 0.13 and the activity coefficient (343.15 K) was found to be 1.68 ± 0.11.
For `CCCO` [propan-1-ol] + CCC[N+]1(C)CCCC1.O=S(=O)([N-]S(=O)(=O)C(F)(F)F)C(F)(F)F the same measures were 2.17 ± 0.15, 1.95 ± 0.13 and 1.79 ± 0.12.
In the same order, the values of `CC(C)O` [propan-2-ol] + CCCC[N+]1(C)CCCC1.O=S(=O)([N-]S(=O)(=O)C(F)(F)F)C(F)(F)F are 1.9 ± 0.13, 1.72 ± 0.12 and 1.57 ± 0.1.
Consider `CC(C)O` [propan-2-ol] + CCC[N+]1(C)CCCC1.O=S(=O)([N-]S(=O)(=O)C(F)(F)F)C(F)(F)F, for which the activity coefficient (323.15 K) is 1.92 ± 0.13, the activity coefficient (333.15 K) worked out at 1.79 ± 0.12 and the activity coefficient (343.15 K) turned out to be 1.62 ± 0.11.
For `c1ccncc1` [pyridine] + CCCC[N+]1(C)CCCC1.O=S(=O)([N-]S(=O)(=O)C(F)(F)F)C(F)(F)F the same measures were 0.59 ± 0.04, 0.59 ± 0.04 and 0.59 ± 0.04.
`c1ccncc1` [pyridine] + CCC[N+]1(C)CCCC1.O=S(=O)([N-]S(=O)(=O)C(F)(F)F)C(F)(F)F: the activity coefficient by setting is: (323.15 K) 0.63 ± 0.04; (333.15 K) 0.63 ± 0.04; (343.15 K) 0.64 ± 0.04.
Consider `ClC(Cl)(Cl)Cl` [tetrachloromethane] + CCCC[N+]1(C)CCCC1.O=S(=O)([N-]S(=O)(=O)C(F)(F)F)C(F)(F)F, for which the activity coefficient is, setting by setting: (323.15 K) 2.44 ± 0.17; (333.15 K) 2.45 ± 0.17; (343.15 K) 2.47 ± 0.17.
In the case of `ClC(Cl)(Cl)Cl` [tetrachloromethane] + CCC[N+]1(C)CCCC1.O=S(=O)([N-]S(=O)(=O)C(F)(F)F)C(F)(F)F, the activity coefficient runs as follows: (323.15 K) 2.55 ± 0.17; (333.15 K) 2.62 ± 0.18; (343.15 K) 2.64 ± 0.18.
In the same order, the values of `c1ccsc1` [thiophene] + CCCC[N+]1(C)CCCC1.O=S(=O)([N-]S(=O)(=O)C(F)(F)F)C(F)(F)F are 0.82 ± 0.05, 0.83 ± 0.05 and 0.84 ± 0.05.
For the compound `c1ccsc1` [thiophene] + CCC[N+]1(C)CCCC1.O=S(=O)([N-]S(=O)(=O)C(F)(F)F)C(F)(F)F, the activity coefficient reads like this: (323.15 K) 0.86 ± 0.06; (333.15 K) 0.88 ± 0.06; (343.15 K) 0.89 ± 0.06.
For `Cc1ccccc1` [toluene] + CCCC[N+]1(C)CCCC1.O=S(=O)([N-]S(=O)(=O)C(F)(F)F)C(F)(F)F the same measures were 1.25 ± 0.08, 1.27 ± 0.08 and 1.29 ± 0.08.
In the same order, the values of `Cc1ccccc1` [toluene] + CCC[N+]1(C)CCCC1.O=S(=O)([N-]S(=O)(=O)C(F)(F)F)C(F)(F)F are 1.37 ± 0.09, 1.38 ± 0.09 and 1.45 ± 0.1.
In the same order, the values of `ClC(Cl)Cl` [trichloromethane] + CCCC[N+]1(C)CCCC1.O=S(=O)([N-]S(=O)(=O)C(F)(F)F)C(F)(F)F are 0.83 ± 0.05, 0.86 ± 0.06 and 0.88 ± 0.06.
As to `ClC(Cl)Cl` [trichloromethane] + CCC[N+]1(C)CCCC1.O=S(=O)([N-]S(=O)(=O)C(F)(F)F)C(F)(F)F, the activity coefficient (323.15 K) was 0.85 ± 0.05, the activity coefficient (333.15 K) stood at 0.91 ± 0.06 and the activity coefficient (343.15 K) was 0.96 ± 0.06.
For `CCN(CC)CC` [triethylamine] + CCCC[N+]1(C)CCCC1.O=S(=O)([N-]S(=O)(=O)C(F)(F)F)C(F)(F)F the same measures were 7.07 ± 0.48, 7.07 ± 0.48 and 7.09 ± 0.48.
